“Also recorded” adds a separate entry of the source. Read-outs that look alike come from different tables or passages of the source.
Columns and labels:
cultures de tabac = conditions: prior art; cited from earlier work
CAD de peuplier = target: T1, CAD de peuplier (Populus deltoides, UniProt P31657); experiment: In vitro inhibition of isolated poplar cinnamyl alcohol dehydrogenase (CAD) at 2 mM; format: biochemical; conditions: for inhibition at 2000 µM / Inhibition à 2mM %: 2mM, CAD de peuplier; for inhibition at 2000 µM: read-out: Inhibition à 2mM %
T1 construct: CAD de peuplier isolée selon la méthode deSARNI et al,1984; from tissue; host or cells: poplar plant material
T1 sequence (P31657 1-357): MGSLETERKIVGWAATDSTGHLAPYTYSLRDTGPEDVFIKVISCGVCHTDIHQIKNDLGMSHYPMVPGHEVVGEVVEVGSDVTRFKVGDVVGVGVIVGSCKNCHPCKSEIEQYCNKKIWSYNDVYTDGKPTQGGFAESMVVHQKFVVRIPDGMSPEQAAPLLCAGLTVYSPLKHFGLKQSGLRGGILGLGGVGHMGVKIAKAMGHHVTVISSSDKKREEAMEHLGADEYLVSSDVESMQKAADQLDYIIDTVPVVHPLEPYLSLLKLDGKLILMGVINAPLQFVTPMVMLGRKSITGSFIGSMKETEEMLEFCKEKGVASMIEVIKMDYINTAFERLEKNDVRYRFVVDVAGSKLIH
Text: Après réacidification à pH2 par de l'acide chlorhydrique 3N et centrifugation, le surnageant contenant les acides cinnamiques est séparé du résidu. Les "poudres alcool-benzène" ainsi hydrolysées sont lavées par de l'eau distillée jusqu'à pH neutre et séchées, sous vide dans un dessiccateur en présence de silica.-gel. Les teneurs en lignines sont estimées par la méthode gravimétriques de KLASON (Tappi Standard method Tl2m) modifiée par EFFLAND. Tappi, 60, p 143-144, 1977. On rapporte dans le tableau 1) suivant les résultats obtenus concernant l'effet mesuré in vitro d'inhibiteurs selon l'invention à une concentration de 2mM vis-à-vis de la CAD de peuplier isolée selon la méthode deSARNI et al,1984,EUROP JOURNAL OF BIOCHEMISTRY, 18(1),139, 259-265 On indique également dans ce tableau les résultats obtenus avec des composés portant des substitutions différentes de ceux mis enoe uvre dans l'invention. Les chiffres indiqués entre parenthèses a côté des formules correspondent aux composés identifiés dans les exemples de préparation 2 et 3.
On rapporte dans le tableau 2 suivant les pourcentages d'inhibition de la CAD obtenus en utilisant, à raison de 2 mM, différents composés capables de complexer Zn.

CAD = target: T2, CAD (Populus deltoides, UniProt P31657); experiment: In vitro CAD activity with nitro derivatives, physiological direction (aldehyde reduction, NADPH oxidation at 340 nm); format: biochemical; conditions: read-out: % d'inhibition (activité CAD); for inhibition at 230 µM: Concentration finale dans le milieu 0,230 mM; for inhibition at 375 µM: Concentration finale dans le milieu 0,375 mM
T2 sequence (P31657 1-357): T1 sequence (P31657 1-357)
Text: η) Effets des dérivés nitrés sur l'activité CAD "in vitro". Concentration finale % d'inhibition
Les mesures ont été réalisées dans le sens physiologique (aldéhyde alcool), c'est-à-dire en suivant la réduction de l'aldéhyde (oxydation du NADPH mesurée à 340 nm).(Les tests sont plus sensibles et plus proches du milieu "in vivo".

**Q.** For `NOC(Cc1ccccc1)C(=O)O` (racemic) [acide D,L-α-aminoxy-β -phényl-propionique], which “réduction des phénols totaux” value (cultures de tabac) is on record?
**A.** ~30%

**Q.** For `O=C(O)CSCC(=O)c1ccccc1` [Acide oxo-5-phényl-5-thia-3, reference compound], which inhibition at 2000 µM (CAD de peuplier) is on record?
**A.** 40%

**Q.** For `O=C(O)CS(=O)(=O)Nc1ccccc1` [NPS, N-(phényl) sulfamoyle], which inhibition at 2000 µM (CAD de peuplier) is on record?
**A.** 45%

**Q.** Which “inhibition de l'activité CAD (in words)” value (CAD de peuplier) does the source give for `CC(C)[S+]([O-])Nc1ccccc1` (stereo not shown) [NPSP, N-(phényl) sulfinamoyl d'isopropyle, reference compound] here?
**A.** inefficaces; also recorded: n'inhibent pas

**Q.** What about the inhibition at 2000 µM (CAD de peuplier) of the same compound?
**A.** 0%

**Q.** For `CC(C)(C)OC(=O)CC(=O)Nc1ccccc1` [PCAD, Phényl(carbamoyl) acétate de tertiobutyle, reference compound], which inhibition at 2000 µM (CAD de peuplier) is on record?
**A.** 0%

**Q.** Which inhibition at 2000 µM (CAD de peuplier) does the source give for `CC(C)(C)OC(=O)C[S+]([O-])Nc1ccccc1` (stereo not shown) [composé 1, N-(phényl)sulfinamoyl acétate de tertiobutyle] here?
**A.** 50%

**Q.** With `CC(C)(C)OC(=O)CS(=O)(=O)Nc1ccccc1` [composé 7a, N-(phényl)sulfamoyl acétate de tertiobutyle] as the compound, how does the inhibition at 2000 µM (CAD de peuplier) read?
**A.** 50%

**Q.** Which inhibition at 2000 µM (CAD de peuplier) does the source give for `CC(C)(C)OC(=O)CS(=O)(=O)NC1CCCCC1` [compound 14, N-(Cyclohexyl)sulfamoyl acétate de tertiobutyle] here?
**A.** 0%

**Q.** For `CC(C)(C)OC(=O)C(C)(C)[S+]([O-])Nc1ccccc1` (stereo not shown) [compound 15, N-(Phényl)sulfinamoyl isobutyrate de tertiobutyle], which inhibition at 2000 µM (CAD de peuplier) is on record?
**A.** 0%

**Q.** And the “inhibition de l'activité CAD (in words)” value (CAD de peuplier; listed as NPSI)?
**A.** inefficaces; also recorded: n'inhibent pas

**Q.** With `CC(C)(C)OC(=O)C[S+]([O-])NC1CCCCC1` (stereo not shown) [compound 17, N-(Cyclohexyl)sulfinamoyl acétate de tertiobutyle] as the compound, how does the inhibition at 2000 µM (CAD de peuplier) read?
**A.** 0%

**Q.** With `CC(C)(C)OC(=O)C[S+]([O-])Nc1ccc([N+](=O)[O-])cc1O` (stereo not shown) [nitro OH PAS] as the compound, how does the inhibition at 230 µM (CAD) read?
**A.** 5%

**Q.** What about the inhibition at 375 µM (CAD) of the same compound?
**A.** 41%

**Q.** And the inhibition at 500 µM (CAD; Concentration finale dans le milieu 0,500 mM)?
**A.** 100%

**Q.** Which results are given for `CC(C)(C)OC(=O)C[S+]([O-])Nc1ccc([N+](=O)[O-])cc1` (stereo not shown) [nitro PAS]?
**A.** inhibition at 125 µM (CAD; Concentration finale dans le milieu 0,125 mM): 14%; inhibition at 188 µM (CAD; Concentration finale dans le milieu 0,188 mM): 28%; inhibition at 230 µM (CAD): 68%; inhibition at 375 µM (CAD): 100%

**Q.** For “(Hydroxy-4-methoxy-3-phényl)-3-Hydroxy-3-propanethiate de 5-phényle [HMHP, reference compound]”, which “Inhibition à 2mM %” value (CAD de peuplier) is on record?
**A.** 40%

**Q.** For “N-(Thiazolyl-2) Sulfanilamide [NTS, reference compound]”, which “Inhibition à 2mM %” value (CAD de peuplier) is on record?
**A.** 55%

**Q.** With “N-tert-butyl-methoxy-2 (Iminomethyl) - 4 phénol [BIP, reference compound]” as the compound, how does the “Inhibition à 2mM %” value (CAD de peuplier) read?
**A.** 50%
